Experiments:
primary rat hepatocytes = test: De novo protein synthesis by [3H]-leucine incorporation; format: cell-based; details: co-treatment with EGF
Experimental: De novo protein synthesis was determined by [^3H]-leucine incorporation. [^3H]-Leucine (2 μCi/ml final concentration) was added to the hepatocyte cultures 68 hours after plating. Four hours later, cells were washed twice with ice-cold PBS and lyzed in 40% cold trichloroacetic acid. After 2 additional washes in 10% cold trichloroacetic acid, the pellet was solubilized in NaOH (0.1N). The amount of [^3H]-leucine was subsequently measured by liquid scintillation.

C/EBPalpha = test: Western blotting of C/EBPalpha in primary hepatocytes; format: cell-based, rat; details: 1 μM TSA added at 0h or 4 h; day 4 and 7
From the text: Hepatocytes were isolated from male Sprague-Dawley rats by a two-step collagenase perfusion as described (De Smet et al. In ‘Methods in Molecular Biology, Vol. 107: Cytochrome P450 Protocols’, Philips IR and Shephard E A, eds., p.p 295-301, Humana Press, Totowa, 1998). Hepatocytes were cultivated in monolayer cultures with Willam's E Medium (WE) for 7 days. […] The maintenance of differentiation characteristics was studied after 2, 4, and 7 days (D2, D4, D7) of culture.
Western blotting was performed using standard techniques known in the art. Proteins (25 μg) were resolved on a 10% SDS-PAGE and blotted onto nitrocellulose membrane. The membranes were incubated with appropriate concentrations of primary and secondary antibodies. Proteins were detected using appropriate dilutions of primary and secondary antibodies. Detection was done using the ECL detection system (Amersham Pharmacia Biotech, UK) according to manufacturer's recommendations.

Cx32 = Cx32 expression (immunoblotting) in rat hepatocytes; format: cell-based; details: 1 μM TSA
Experimental: In all conditions, the hepatocytes were cultivated as a monolayer configuration, and samples were taken at days 1, 4 and 7 (D1, D4, D7) of the cultivation time.
Proteins (25 or 50 μg) were resolved on SDS-PAGE (7.5, 10 or 12%) and blotted afterwards onto nitrocellulose membranes. After blocking with non-fatty milk, membranes were incubated with appropriate concentrations of primary and secondary antibodies (HRP labeled). Proteins were detected using the ECL detection system (Amersham Biosciences). Primary antibodies: Cx26 (Zymed, 1/250), Cx32 (Sigma, 1/500), Cx43 (Zymed, 1/100).
Hepatocytes were fixed with cold ethanol, peremeabilised with Triton X-100 (Sigma) and blocked with non-fatty milk. Following incubation with appropriate concentrations of primary and secondary antibodies (FITC or TRITC labeled), samples were mounted with DAPI-containing Vectashield (Vector Laboratories). Detection was performed by fluorescence microscopy (Leica DMR/XA).

CN(C)c1ccc(C(=O)NCCCCC(=O)NO)cc1 [4-Me2N-BAVAH, 5-(4-dimethylaminobenzoyl)-aminovaleric acid hydroxamide]
de novo protein synthesis (primary rat hepatocytes): not further enhanced

CC(C=CC(=O)NO)=CC(C)C(=O)c1ccc(N(C)C)cc1 (stereo not drawn) [TSA]
expression of C/EBPalpha (C/EBPalpha): increase expression
expression of Cx32 (Cx32): induces the expressions

From patent publication US20090130064A1, “DIFFERENTIATION OF STEM CELLS AND STABILIZATION OF PHENOTYPICAL PROPERTIES OF PRIMARY CELLS” (priority 2004, published 2009)
